What was measured:
[1] = biological target: T1, Sodium channel protein type 9 subunit alpha (Homo sapiens, UniProt Q15858); test: Antagonist activity at recombinant human Nav1.7 expressed in HEK293 cells assessed as reduction in peak inward current at 100 nM at -120 mV holding potential by patch clamp electrophysiology; format: cell-based
Target sequence in this assay (Q15858 whole entry, looked up): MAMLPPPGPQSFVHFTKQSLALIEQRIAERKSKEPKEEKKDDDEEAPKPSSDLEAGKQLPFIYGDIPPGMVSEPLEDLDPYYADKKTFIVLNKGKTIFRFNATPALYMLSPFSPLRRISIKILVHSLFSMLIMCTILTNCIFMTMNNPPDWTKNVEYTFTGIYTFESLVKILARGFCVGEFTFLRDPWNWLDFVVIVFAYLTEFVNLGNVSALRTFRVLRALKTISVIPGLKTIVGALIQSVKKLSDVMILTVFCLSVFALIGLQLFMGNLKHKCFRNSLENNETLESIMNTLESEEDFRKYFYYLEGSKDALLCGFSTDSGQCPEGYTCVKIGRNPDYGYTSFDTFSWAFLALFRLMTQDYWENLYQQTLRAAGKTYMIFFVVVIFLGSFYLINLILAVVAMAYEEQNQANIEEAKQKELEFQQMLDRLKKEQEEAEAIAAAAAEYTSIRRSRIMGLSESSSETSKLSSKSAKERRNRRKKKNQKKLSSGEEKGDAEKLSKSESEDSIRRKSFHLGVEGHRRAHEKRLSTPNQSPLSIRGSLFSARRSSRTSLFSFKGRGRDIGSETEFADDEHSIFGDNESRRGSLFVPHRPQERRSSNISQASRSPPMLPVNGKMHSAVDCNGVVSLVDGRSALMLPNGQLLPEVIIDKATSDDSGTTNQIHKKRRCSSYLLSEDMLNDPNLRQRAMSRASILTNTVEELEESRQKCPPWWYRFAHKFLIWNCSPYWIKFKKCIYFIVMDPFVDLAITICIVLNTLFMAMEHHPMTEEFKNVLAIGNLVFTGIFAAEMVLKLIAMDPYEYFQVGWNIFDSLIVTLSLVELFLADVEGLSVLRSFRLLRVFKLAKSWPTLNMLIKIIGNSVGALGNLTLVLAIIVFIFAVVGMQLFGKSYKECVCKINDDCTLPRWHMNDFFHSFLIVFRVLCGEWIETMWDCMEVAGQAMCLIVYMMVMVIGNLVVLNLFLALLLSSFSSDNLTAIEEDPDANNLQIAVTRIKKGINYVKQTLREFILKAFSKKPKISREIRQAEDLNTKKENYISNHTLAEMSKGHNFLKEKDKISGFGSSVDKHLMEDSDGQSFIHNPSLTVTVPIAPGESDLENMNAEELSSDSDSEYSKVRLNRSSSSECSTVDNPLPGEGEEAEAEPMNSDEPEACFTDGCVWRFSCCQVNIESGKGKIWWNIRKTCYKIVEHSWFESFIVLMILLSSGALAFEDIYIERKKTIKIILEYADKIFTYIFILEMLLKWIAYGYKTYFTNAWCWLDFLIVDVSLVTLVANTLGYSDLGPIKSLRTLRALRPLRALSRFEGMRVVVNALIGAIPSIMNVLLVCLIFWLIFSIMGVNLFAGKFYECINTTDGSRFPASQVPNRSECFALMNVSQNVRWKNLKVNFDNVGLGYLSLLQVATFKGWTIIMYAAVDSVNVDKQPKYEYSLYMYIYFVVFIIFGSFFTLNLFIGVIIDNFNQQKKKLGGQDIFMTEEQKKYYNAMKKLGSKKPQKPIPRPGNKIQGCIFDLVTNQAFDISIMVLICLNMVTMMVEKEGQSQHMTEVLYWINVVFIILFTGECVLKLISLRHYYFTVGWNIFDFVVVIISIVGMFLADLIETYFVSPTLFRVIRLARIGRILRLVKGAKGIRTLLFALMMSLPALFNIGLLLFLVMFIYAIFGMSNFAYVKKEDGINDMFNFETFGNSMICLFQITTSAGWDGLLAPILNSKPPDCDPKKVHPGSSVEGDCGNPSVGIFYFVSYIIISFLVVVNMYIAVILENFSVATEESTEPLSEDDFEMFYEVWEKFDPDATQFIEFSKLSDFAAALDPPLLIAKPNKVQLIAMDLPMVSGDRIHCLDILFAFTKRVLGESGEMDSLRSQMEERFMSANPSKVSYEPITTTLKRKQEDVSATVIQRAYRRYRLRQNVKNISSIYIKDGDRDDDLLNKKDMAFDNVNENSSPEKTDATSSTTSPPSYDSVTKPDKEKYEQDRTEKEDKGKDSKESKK

[2] = biological target: T1, Sodium channel protein type 9 subunit alpha; test: Antagonist activity at recombinant human Nav1.7 expressed in HEK293 cells assessed as reduction in peak inward current at 1 uM at -120 mV holding potential by patch clamp electrophysiology; format: cell-based
Target sequence in this assay (Q15858 whole entry, looked up): as above

[3] = biological target: T1, Sodium channel protein type 9 subunit alpha; test: Antagonist activity at recombinant human Nav1.7 expressed in HEK293 cells assessed as reduction in channel current at -60 mV holding potential after 600 secs by barracuda automated electrophysiology method; format: cell-based
Target sequence in this assay (Q15858 whole entry): as the sequence (Q15858 whole entry, looked up) above

[4] = biological target: T1, Sodium channel protein type 9 subunit alpha; test: Antagonist activity at recombinant human Nav1.7 expressed in HEK293 cells assessed as reduction in peak inward current at -65 mV holding potential by patch clamp electrophysiology; format: cell-based
Target sequence in this assay (Q15858 whole entry): as the sequence (Q15858 whole entry, looked up) above

[5] = biological target: Sodium channel protein type 8 subunit alpha (Homo sapiens, UniProt Q9UQD0); test: Antagonist activity at recombinant human Nav1.6 assessed as reduction in channel current by barracuda automated electrophysiology method
[6] = biological target: Sodium channel protein type 5 subunit alpha (Homo sapiens, UniProt Q14524); test: Antagonist activity at recombinant human Nav1.5 expressed in HEK293 cells assessed as reduction in channel current at -50 mV holding potential after 600 secs by barracuda automated electrophysiology method; format: ADME, cell-based
Chain of Sodium channel protein type 5 subunit alpha (Q14524 whole entry): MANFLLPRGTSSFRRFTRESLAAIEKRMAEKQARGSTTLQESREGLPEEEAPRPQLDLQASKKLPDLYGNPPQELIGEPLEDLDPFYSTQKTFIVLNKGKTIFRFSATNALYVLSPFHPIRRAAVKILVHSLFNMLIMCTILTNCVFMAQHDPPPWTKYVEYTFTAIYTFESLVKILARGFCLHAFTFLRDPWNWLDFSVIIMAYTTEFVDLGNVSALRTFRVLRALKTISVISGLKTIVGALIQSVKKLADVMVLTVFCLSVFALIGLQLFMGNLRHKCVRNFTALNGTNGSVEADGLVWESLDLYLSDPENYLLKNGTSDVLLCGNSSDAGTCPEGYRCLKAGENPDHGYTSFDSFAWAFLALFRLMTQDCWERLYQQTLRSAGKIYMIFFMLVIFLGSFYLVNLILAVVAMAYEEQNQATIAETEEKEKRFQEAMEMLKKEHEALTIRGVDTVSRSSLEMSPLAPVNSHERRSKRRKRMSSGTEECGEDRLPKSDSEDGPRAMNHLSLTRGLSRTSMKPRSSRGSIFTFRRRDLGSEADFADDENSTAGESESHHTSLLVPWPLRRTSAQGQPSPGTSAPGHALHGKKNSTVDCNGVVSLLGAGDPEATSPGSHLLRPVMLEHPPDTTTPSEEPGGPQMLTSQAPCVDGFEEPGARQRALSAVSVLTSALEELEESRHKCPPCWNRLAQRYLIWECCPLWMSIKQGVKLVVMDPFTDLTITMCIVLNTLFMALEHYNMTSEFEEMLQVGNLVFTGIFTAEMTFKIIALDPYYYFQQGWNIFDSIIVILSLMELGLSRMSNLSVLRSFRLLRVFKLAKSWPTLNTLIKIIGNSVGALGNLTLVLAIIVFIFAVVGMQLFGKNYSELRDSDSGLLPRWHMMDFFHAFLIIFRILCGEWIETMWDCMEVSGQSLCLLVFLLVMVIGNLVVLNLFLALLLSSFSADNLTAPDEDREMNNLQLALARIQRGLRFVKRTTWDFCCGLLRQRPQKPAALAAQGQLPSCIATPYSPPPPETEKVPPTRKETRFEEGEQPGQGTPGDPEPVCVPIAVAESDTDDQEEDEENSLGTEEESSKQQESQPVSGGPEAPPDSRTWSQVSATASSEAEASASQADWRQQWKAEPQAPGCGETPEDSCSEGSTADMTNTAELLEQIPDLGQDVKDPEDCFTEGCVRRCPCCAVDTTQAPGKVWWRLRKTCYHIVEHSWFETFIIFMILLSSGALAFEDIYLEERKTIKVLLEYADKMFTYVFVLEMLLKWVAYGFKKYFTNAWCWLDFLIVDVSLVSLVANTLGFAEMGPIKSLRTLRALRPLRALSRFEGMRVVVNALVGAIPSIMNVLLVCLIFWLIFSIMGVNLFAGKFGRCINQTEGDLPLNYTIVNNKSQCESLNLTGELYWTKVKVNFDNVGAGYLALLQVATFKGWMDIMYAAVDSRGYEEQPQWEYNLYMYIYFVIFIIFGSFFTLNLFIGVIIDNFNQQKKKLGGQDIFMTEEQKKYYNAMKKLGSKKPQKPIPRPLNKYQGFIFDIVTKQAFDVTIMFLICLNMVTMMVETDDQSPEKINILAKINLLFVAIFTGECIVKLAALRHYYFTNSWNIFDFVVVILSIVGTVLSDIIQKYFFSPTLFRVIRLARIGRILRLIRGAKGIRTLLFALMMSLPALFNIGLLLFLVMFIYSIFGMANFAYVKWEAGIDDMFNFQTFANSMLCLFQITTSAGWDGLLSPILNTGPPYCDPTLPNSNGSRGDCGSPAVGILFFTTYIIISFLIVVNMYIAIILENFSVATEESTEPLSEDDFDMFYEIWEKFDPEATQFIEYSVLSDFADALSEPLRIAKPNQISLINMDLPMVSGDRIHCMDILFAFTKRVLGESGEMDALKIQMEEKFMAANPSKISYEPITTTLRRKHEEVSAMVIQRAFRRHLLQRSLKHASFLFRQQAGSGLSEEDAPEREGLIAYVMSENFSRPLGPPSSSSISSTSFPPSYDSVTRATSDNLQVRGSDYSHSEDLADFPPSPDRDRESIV

[7] = biological target: Sodium channel protein type 2 subunit alpha (Homo sapiens, UniProt Q99250); test: Antagonist activity at recombinant human Nav1.2 assessed as reduction in channel current by barracuda automated electrophysiology method

inhibition [1]: 8%
inhibition [2]: 48%
IC50 [3]: 41 nM
IC50 [4]: 11 nM
IC50 [5]: 1600 nM
IC50 [7]: 1500 nM
SMILES: CC1(C)CN[C@H](c2cc(Cl)cc(Cl)c2)[C@@H](Oc2cc(F)c(S(=O)(=O)Nc3ncns3)cc2F)O1
IC50 [6]: 6000 nM
